Where a SMILES comes first, the peptide text is derived from it. [ ]: non-standard residue; d: D form.
What was measured:
[1] = target: Delta-type opioid receptor (Homo sapiens, UniProt P41143); assay: Binding affinity towards Opioid receptor delta 1 using [3H]DPDPE as radioligand; set-up: species or system Cricetulus griseus
[2] = target: Kappa-type opioid receptor (Homo sapiens, UniProt P41145); assay: Binding affinity towards Opioid receptor kappa 1 using [3H]diprenorphine as radioligand expressed on chinese hamster ovary (CHO) cells; format: cell-based
Sequence of Kappa-type opioid receptor (P41145 whole entry): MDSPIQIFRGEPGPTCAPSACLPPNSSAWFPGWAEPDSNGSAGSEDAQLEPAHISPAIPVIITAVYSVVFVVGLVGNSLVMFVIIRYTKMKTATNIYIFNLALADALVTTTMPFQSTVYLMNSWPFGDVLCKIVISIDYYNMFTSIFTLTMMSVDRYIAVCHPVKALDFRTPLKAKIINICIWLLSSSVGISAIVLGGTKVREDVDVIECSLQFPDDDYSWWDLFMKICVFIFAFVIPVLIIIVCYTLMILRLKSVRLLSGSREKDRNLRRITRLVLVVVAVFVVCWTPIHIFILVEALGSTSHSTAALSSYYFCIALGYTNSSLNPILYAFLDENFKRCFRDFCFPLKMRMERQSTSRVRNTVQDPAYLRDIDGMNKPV

Mu-type opioid receptor = Mu-type opioid receptor (Homo sapiens, UniProt P35372); assay: Binding affinity towards Opioid receptor mu 1 using [3H]DAMGO as radioligand
Sequence of Mu-type opioid receptor (P35372 whole entry): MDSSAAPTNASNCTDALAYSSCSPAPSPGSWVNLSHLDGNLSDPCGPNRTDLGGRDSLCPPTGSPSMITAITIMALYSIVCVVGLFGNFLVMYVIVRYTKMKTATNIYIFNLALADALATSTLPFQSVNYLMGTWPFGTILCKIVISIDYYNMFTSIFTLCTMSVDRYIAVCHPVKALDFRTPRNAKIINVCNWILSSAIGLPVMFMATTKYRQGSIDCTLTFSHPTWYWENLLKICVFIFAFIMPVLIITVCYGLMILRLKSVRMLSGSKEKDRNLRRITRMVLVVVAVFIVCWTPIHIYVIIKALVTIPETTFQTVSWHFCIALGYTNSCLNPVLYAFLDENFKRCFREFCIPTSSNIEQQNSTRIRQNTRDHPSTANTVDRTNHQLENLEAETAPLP

Sequence of Delta-type opioid receptor (P41143 whole entry): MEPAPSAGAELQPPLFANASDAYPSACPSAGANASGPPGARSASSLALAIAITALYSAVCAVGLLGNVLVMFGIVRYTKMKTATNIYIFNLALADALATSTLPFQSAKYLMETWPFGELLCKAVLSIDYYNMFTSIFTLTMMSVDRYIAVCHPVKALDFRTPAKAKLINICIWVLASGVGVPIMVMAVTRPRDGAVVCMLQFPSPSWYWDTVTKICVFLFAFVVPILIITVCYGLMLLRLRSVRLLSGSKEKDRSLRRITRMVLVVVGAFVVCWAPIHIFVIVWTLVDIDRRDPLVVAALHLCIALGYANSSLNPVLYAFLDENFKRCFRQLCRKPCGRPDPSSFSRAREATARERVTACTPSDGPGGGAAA

Compound	Ki [1] [nM]	Ki [2] [nM]	Ki (Mu-type opioid receptor) [nM]
CC(=O)N[C@@H](Cc1ccccc1)C(=O)N[C@@H](Cc1ccccc1)C(=O)N[C@@H](Cc1ccccc1)C(=O)N[C@@H](CCCNC(=N)N)C(=O)N[C@@H](CC(C)C)C(=O)N[C@@H](CCCNC(=N)N)C(=O)N[C@@H](CCCNC(=N)N)C(=O)N[C@H](C)C(=O)N[C@@H](CCCNC(=N)N)C(=O)N1CCC[C@H]1C(=O)N[C@@H](CCCCN)C(N)=O (Ac-FFFRLRR[dA]RPK-NH2)	5830	–	–
CSCC[C@H](NC(=O)[C@H](Cc1ccccc1)NC(=O)[C@H](CCCN=C(N)N)NC(C)=O)C(=O)N[C@@H](Cc1c[nH]c2ccccc12)C(=O)N[C@@H](CCSC)C(=O)N[C@@H](CCCN=C(N)N)C(=O)N[C@@H](CCCN=C(N)N)C(=O)N[C@H](C)C(=O)N[C@@H](CCCN=C(N)N)C(=O)N1CCC[C@H]1C(=O)N[C@@H](CCCCN)C(N)=O [EXTACET]	–	6.6	1.12

From ChEMBL document CHEMBL1135684, “Identification of arodyn, a novel acetylated dynorphin A-(1-11) analogue, as a kappa opioid receptor antagonist” (J Med Chem, 2002)
